This is an account of results in article PMC6981960 (2019).

The test system of assay [1] is NP7 (DNA, aptamer) ATGCGGATCCCGCGCGGCCGGCCAGTGCGCGAAGCTTGCGC
Nature of the assay: AuNP colorimetric aggregation assay. The following applies: NaCl added to aggregate AuNPs (10 μL, printed 850 nM), aptamer 4 μM.

For assay [2] the test system is unchanged. The experiment in a line: circular dichroism. The following applies: 137 mM NaCl, 2.7 mM KCl; PBS pH 7.4, 25 °C; aptamer 2 μM; 4-n-NP 0, 100, 1000 nM; qualitative change near 250 nm.

Regarding `CC(C)(c1ccc(O)cc1)c1ccc(O)cc1`, the binding result in assay [1] (bisphenol A same amount as nonylphenol (200 nM stated)) is reported as “weak”. In the case of `CC1(C)S[C@@H]2[C@H](NC(=O)Cc3ccccc3)C(=O)N2[C@H]1C(=O)O`, the binding result in assay [1] (penicillin G same amount as nonylphenol (200 nM stated)) is “no”. On to `CCCCC(CC)COC(=O)c1ccccc1C(=O)OCC(CC)CCCC` (centres unmarked), for which the binding result in assay [1] (DEHP same amount as nonylphenol (200 nM stated)) is “no”. Consider `CCCCCCCCCc1ccc(O)cc1`, for which the binding result in assay [2] is listed as “yes”.

Consider `Oc1ccccc1`, for which the binding entry in assay [1] (phenol same amount as nonylphenol (200 nM stated)) is reported as “no”.
